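1) Cells in 96-well plates. 2) Compound, 48 h, 5 concentrations. 3) Linear interpolation between surrounding doses. 4) Unreached endpoint = highest concentration. GI50 is the concentration that inhibits growth by half.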 The source made the active and inactive calls. Cut-off read from the data, not from the text of the source: active = GI50 up to about 1.1 µM and inactive = higher.
Tests used:
Test in all cases: NCI anticancer screen, dose series, 48 h
DLD-1 = system: DLD-1
DMS-114 = system: DMS-114
DMS-273 = system: DMS-273
KM-20L2 = system: KM-20L2
LXFL 529 = system: LXFL 529
M19-MEL = system: M19-MEL
HOP-18 = system: HOP-18
SNB-78 = system: SNB-78
RXF 631 = system: RXF 631

Row | Structure (SMILES) | GI50 (DLD-1) | GI50 (DMS-114) | GI50 (DMS-273) | GI50 (KM-20L2) | GI50 (LXFL 529) | GI50 (M19-MEL) | GI50 (HOP-18) | GI50 (SNB-78) | GI50 (RXF 631)
1 | CN1C(=O)CN2C(Cl)(Cl)C2(c2ccccc2)c2cc(Cl)ccc21 (stereo unspecified) | 93.5 µM (inactive) | > 100 µM (inactive) | 87.7 µM (inactive) | > 100 µM (inactive) | > 100 µM (inactive) | > 100 µM (inactive) |  |  | 
2 | OCc1nnn2c1CCC2 | > 100 µM (inactive) |  |  | > 100 µM (inactive) | > 100 µM (inactive) | > 100 µM (inactive) | > 100 µM (inactive) | > 100 µM (inactive) | 
3 | CC12CC3(C)CC(C)(C1)CC(N=[N+]=[N-])(C2)C3 | > 100 µM (inactive) | > 100 µM (inactive) | > 100 µM (inactive) |  | > 100 µM (inactive) | > 100 µM (inactive) | > 100 µM (inactive) | > 100 µM (inactive) | > 100 µM (inactive)
4 | Clc1ccc(CCc2ccncn2)c(Cl)c1 | > 100 µM (inactive) | 30.1 µM (inactive) | 97.5 µM (inactive) | 73.5 µM (inactive) | 36.3 µM (inactive) | 47.8 µM (inactive) | 33.3 µM (inactive) | 61.5 µM (inactive) | 60.1 µM (inactive)
5 | S=c1sc2cscc2s1 | 21 µM (inactive) | 22.8 µM (inactive) | 31.1 µM (inactive) | 27 µM (inactive) | 20.2 µM (inactive) | 18.5 µM (inactive) | 20.7 µM (inactive) | 30.5 µM (inactive) | 24.9 µM (inactive)
6 | CC(=O)OCC1=C(COC(C)=O)C(=O)c2c(O)ccc(O)c2C1=O | 1.43 µM (inactive) | 11.2 µM (inactive) | 15.5 µM (inactive) | 13.4 µM (inactive) | 2.55 µM (inactive) | 1.73 µM (inactive) | 21 µM (inactive) | 3.78 µM (inactive) | 
7 | Cc1[nH]c(=O)[nH]c(=O)c1/C=C/C(=O)NC(CO)C[S+]([O-])C[S+](C)[O-] (stereo unspecified) | 20.4 µM (inactive) | 11.1 µM (inactive) | 21 µM (inactive) | 36.9 µM (inactive) |  | 15 µM (inactive) | 59.3 µM (inactive) | 11.7 µM (inactive) | 
8 | CN(C)C(=S)/N=c1\ss/c(=N\S(=O)(=O)c2ccccc2)n1-c1ccccc1 | 13.5 µM (inactive) | 2.08 µM (inactive) | 12.9 µM (inactive) |  | 0.0481 µM (active) | 19.4 µM (inactive) | 32.6 µM (inactive) | 29 µM (inactive) | > 100 µM (inactive)
9 | O=C1C(c2ccc(C3=[N+]([O-])c4cc([N+](=O)[O-])ccc4C3=O)cc2)=[N+]([O-])c2cc([N+](=O)[O-])ccc21 | > 10 µM (inactive) | > 10 µM (inactive) | > 10 µM (inactive) | > 10 µM (inactive) | > 10 µM (inactive) | > 10 µM (inactive) | > 100 µM (inactive) | 8.91 µM (inactive) | 
10 | O=C(Nc1nc2ncn(CCNCc3ccccc3)c2c(=O)[nH]1)c1ccccc1 | > 100 µM (inactive) | > 100 µM (inactive) | > 100 µM (inactive) | > 100 µM (inactive) | > 100 µM (inactive) | > 100 µM (inactive) | > 100 µM (inactive) | > 100 µM (inactive) | 41.5 µM (inactive)
11 | COc1ccc(C2C(N)=NCC2c2ccccn2)cc1 (stereo unspecified) | > 100 µM (inactive) | > 100 µM (inactive) |  | > 100 µM (inactive) | > 100 µM (inactive) | > 100 µM (inactive) | 30.1 µM (inactive) | > 100 µM (inactive) | > 100 µM (inactive)
